In ChEMBL document CHEMBL1157539, “Thousands of chemical starting points for antimalarial lead identification” (Nature, 2010):

Test system: Plasmodium falciparum
Assay: GSK_TCMDC: Inhibition of Plasmodium falciparum 3D7 in whole erythrocytes, using parasite LDH activity as an index of growth.
Format: functional, organism-based
Conditions: Plasmodium falciparum, 3D7

Work on CO/C(=C/C=C/c1cc2cc(Cl)c(Cl)cc2[nH]1)C(=O)NC1CC(C)(C)N(C)C(C)(C)C1 yielded an XC50 of 783 nM.

COC(=O)CCCCCOc1cc(Cc2cnc(N)nc2N)cc(OC)c1OC gave an XC50 of 179 nM.

For CCn1c(C(C)C)cc2c3c(N)nc(N)nc3ccc21, the XC50 was 12.4 nM.

In the case of COc1ccc2nc3cc(Cl)ccc3c(NCCCCNc3c4ccc(Cl)cc4nc4ccc(OC)cc34)c2c1, the XC50 is reported as 160 nM.

For Cc1[nH]c(C)c(-c2ccc(Oc3ccc(Cl)cc3)cc2)c(=O)c1Br, the XC50 was 592 nM.

For COCCn1c(C)cc(C(=O)CN2C(=O)NC(C)(c3ccc(C(C)(C)C)cc3)C2=O)c1C (configuration not stated), the XC50 was 475 nM.

In the case of O=C(NCC1CCN(Cc2cccc(C(F)(F)F)c2)C1)c1cc(-c2cccc(C(F)(F)F)c2)cs1 (configuration not stated), the XC50 is reported as 608 nM.

Compound FC(F)(F)c1ccc2[nH]ccc(=NN=Cc3ccc(Cl)cc3)c2c1 has an XC50 of 791 nM.

COc1ccc(Cc2cccc(C(C(=O)NCc3cc(Cl)cc(Cl)c3)N3CCN(C)CC3)c2)cc1 (configuration not stated) was tested, and the XC50 was 694 nM.

For CCNc1cc(C(=O)N[C@@H](Cc2ccccc2)[C@H](O)CNC2C3CC4CC(C3)CC2C4)cc(N2CCCCS2(=O)=O)c1 (some centres not stated), the XC50 was 668 nM.

For COc1cccc(NC(=O)Nc2ccc(Nc3nc(C)cc(N(C)C)n3)cc2)c1, the XC50 was 169 nM.

In the case of O=C1SC(S)=NC1=CNCCCCCCO, the XC50 is reported as 850 nM.

Work on Cc1cc(NCCCOc2ccc(Cl)cc2)nc(NCc2ccccc2)n1 yielded an XC50 of 782 nM.

Compound COc1ccc2c(=NN=Cc3ccccc3F)cc(C)[nH]c2c1 has an XC50 of 997 nM.

Compound Cc1cnc(NCC2CCCCC2)nc1N[C@@H](CC(C)C)C(=O)Nc1ccccc1 has an XC50 of 869 nM.

N#Cc1ccc(N/C(=N\c2ccccc2Cl)NC2CCN(Cc3ccccc3)CC2)c(O)c1 showed an XC50 of 300 nM.

Cn1cncc1C(=O)Nc1cccc(-c2cccc(-c3nc4cc(F)ccc4[nH]3)c2)c1 showed an XC50 of 493 nM.

For COc1nc(-n2ccc(=N)cc2)nc2ccccc12, the XC50 was 1060 nM.

O=C(c1cccs1)N(Cc1cccc(-c2ccc(CNCCc3ccccc3)cc2)c1)C1CCN(Cc2ccccc2)CC1 was tested, and the XC50 was 860 nM.

Compound CN1CCN(CCCN(Cc2csc(-c3ccc(CNCc4ccccc4)cc3)n2)C(=O)Nc2cc(Cl)cc(Cl)c2)CC1 has an XC50 of 700 nM.

With CCCCNC(=O)[C@H](CC1CCCCC1)NC(=O)c1ccc(O)c(-c2cccc(C(F)(F)F)c2)c1 the XC50 was 773 nM.

Cc1cc(Cl)ccc1N(Cc1ccccc1)c1ccnc(Cl)n1 showed an XC50 of 859 nM.

With CO/C(=C\C=C\c1cc2cc(Cl)c(Cl)cc2[nH]1)C(=O)NCCCN1CCN(c2cccc(OCC(=O)Nc3cccc(C(=O)c4ccccc4)c3)c2)CC1 the XC50 was 686 nM.

In the case of CC(C)(C)c1cc(C(=O)N2CCC(c3ccccn3)CC2)n(Cc2ccccc2)n1, the XC50 is reported as 955 nM.

CCC(C)C#Cc1c(C)nc(N)nc1N (configuration not stated) showed an XC50 of 262 nM.

In the case of COc1cccc(CNc2ncc(-c3ccsc3)c(-c3nccs3)n2)c1, the XC50 is reported as 422 nM.

For Cc1nc(-c2cccc(C(=O)N(Cc3cncn3Cc3cccc(C(F)(F)F)c3)CC3CC3)c2)cs1, the XC50 was 941 nM.

For COc1cc(CNCCC(C)C)ccc1OCc1cccc(COc2ccc(CNCCC(C)C)cc2OC)c1, the XC50 was 492 nM.

Cc1ccoc1C(=O)Nc1cccc(-c2cccc(-c3nc4cc(C(F)(F)F)ccc4[nH]3)c2)c1 gave an XC50 of 613 nM.

O=C(NCCCCN1CCC(c2ccc3c(c2OCC2CC2)CCCC3)CC1)c1ccc(NC(=O)c2ccc(Cl)cc2)cc1 gave an XC50 of 680 nM.

CNC(=O)c1ccccc1Nc1nc(Nc2ccc(N3CCN(C)CC3)nc2)ncc1C gave an XC50 of 1140 nM.

Work on FC(F)(F)c1cccc(CNCC2CCN(CC3CCCCC3)CC2)c1 yielded an XC50 of 402 nM.

In the case of COc1cc2c(cc1N1CCN(C)CC1)N(C(=O)Nc1ccc(-c3ccncc3)c(Cl)c1Cl)CC2, the XC50 is reported as 608 nM.

For N#Cc1ccc(Sc2nnc(-c3ccccc3Cl)n2CC2CCCCC2)cc1[N+](=O)[O-], the XC50 was 1160 nM.

For COc1cc2nc(N3CCC(CNC(=O)c4cccc5cc[nH]c45)CC3)nc(N)c2cc1OC, the XC50 was 1580 nM.

COc1ccc(C(=O)Nc2cc(Br)c3c(c2)CNCC3)cc1Br gave an XC50 of 915 nM.

CN(C)CCN(Cc1ccc(-c2ccc(CNCCc3ccccc3)cc2)nc1)C(=O)CCC1CCCC1 was tested, and the XC50 was 799 nM.

Compound CCOc1cc(C(=O)NC2CCN(Cc3ccccc3)CC2)ccc1-c1nc2cc(Cl)c(F)cc2[nH]1 has an XC50 of 802 nM.

With OC(CN(Cc1ccccc1)Cc1ccccc1)Cn1c2ccc(Cl)cc2c2cc(Cl)ccc21 (configuration not stated) the XC50 was 995 nM.

Work on CC1(C)N=C(N)N=C(N)N1OCc1cccc2c1ccc1ccccc12 yielded an XC50 of 3.2 nM.

Work on CO/C(=C\C=C\c1cc2cc(Cl)c(Cl)cc2[nH]1)C(=O)NCCCN1CCN(c2cccc(CCCO)c2)CC1 yielded an XC50 of 1030 nM.

CCCC(=O)Nc1ccc(Cl)c(NC(=O)COc2cc(C)ccc2C(C)C)c1 was tested, and the XC50 was 933 nM.

With FC(F)(F)c1ccc2[nH]c(-c3cccc(-c4ccc(CNCC5CCCO5)cc4)c3)nc2c1 (configuration not stated) the XC50 was 277 nM.

CCCCCCCN1CCC(NC(=O)Nc2ccnc3ccc(OC)cc23)C(C(=O)OCC)C1 (configuration not stated) gave an XC50 of 426 nM.

Cc1cc(N[C@@H](Cc2ccccc2)C(=O)NCCc2ccccc2)nc(NCCc2cccs2)n1 gave an XC50 of 713 nM.

In the case of O=C(/C=C/c1ccc(Cl)c(Cl)c1)N1CCC(CCN2CCC(c3c[nH]c4cc5c(cc34)OCO5)CC2)CC1, the XC50 is reported as 732 nM.

In the case of Cc1cccc(Nc2nc(NCCCCN)nc3cc[nH]c(=O)c23)c1, the XC50 is reported as 733 nM.

COc1ccc2c(=NN=Cc3c(OC)ccc4ccccc34)cc(C)[nH]c2c1 gave an XC50 of 777 nM.

In the case of O=C(Nc1cccc(-c2csc(-c3nc4ccccc4[nH]3)c2)c1)c1cccnc1, the XC50 is reported as 230 nM.

CCCCCN1CCC(NS(=O)(=O)c2cccc(C(=O)Nc3cccc(C(F)(F)F)c3)c2)C1 (configuration not stated) was tested, and the XC50 was 826 nM.

CC(C)CCNc1nc(NCc2ccccc2)c2cc(O)ccc2n1 showed an XC50 of 105 nM.

CN1CCN(c2ccnc3cc4c(cc23)N(C(=O)Nc2ccc3c(c2)CCCC3=O)CC4)CC1 was tested, and the XC50 was 623 nM.

Cc1cc(Nc2ccc(OCc3ccccc3Cl)cc2)c2cc(Cl)ccc2n1 was tested, and the XC50 was 433 nM.

With C=CCOc1ccc2ccccc2c1CNCCCCCCNCc1c(OCC=C)ccc2ccccc12 the XC50 was 859 nM.

With CCOc1cc(Br)c(C(C)NC(=O)c2cccc(OC)c2)cc1OCC (configuration not stated) the XC50 was 168 nM.

For NCc1cccc(-c2ccccc2CNC2CCN(Cc3ccccc3)CC2)c1, the XC50 was 770 nM.

NCCNc1ccc([N+](=O)[O-])cc1C(=O)Nc1cccc(Cl)c1 was tested, and the XC50 was 1260 nM.

For O=C(NNC(=O)c1ccc(CCN2CCC(c3nc(COCC(F)(F)F)c(-c4ccc(F)cc4)o3)CC2)cc1)Nc1ccc(Oc2ccccc2)cc1, the XC50 was 708 nM.

COc1ccc(CNCc2ccccc2)cc1-c1ccc(S(=O)(=O)NCCN2CCCC2)cc1 was tested, and the XC50 was 824 nM.

Compound COC(=O)CNC(c1ccccc1)c1cc(Br)ccc1NC(=O)c1ccccc1Br (configuration not stated) has an XC50 of 988 nM.

For CCCC(C)NC(=O)[C@H](CC1CCCCC1)NC(=O)c1ccc(O)c(-c2ccc(OC)cc2)c1 (some centres not stated), the XC50 was 1130 nM.

With Cc1nc(C)c(-c2ccc(Cl)cc2Cl)c(O)c1Br the XC50 was 1010 nM.

CCOc1ccc(-c2nc(NC(=O)COc3ccc(OC)cc3)sc2C)cc1 gave an XC50 of 541 nM.

For Clc1ccc(CNc2nc(NCCc3c[nH]cn3)nc(N3CCCC4CCCCC43)n2)cc1 (configuration not stated), the XC50 was 591 nM.

COc1ccc(Br)cc1/C=C/C(=O)Nc1cccc(C2CCN(C)CC2)c1 gave an XC50 of 523 nM.

O=C(Nc1cccc(-c2ccc(-c3nc4cc(C(F)(F)F)ccc4[nH]3)cc2)c1)c1c[nH]cn1 was tested, and the XC50 was 966 nM.

With OC(CNCc1ccccc1)c1cc(OCc2ccccc2)cc(OCc2ccccc2)c1 (configuration not stated) the XC50 was 1000 nM.

In the case of Cc1ccccc1C1CCN(c2ncc(C(=O)NC3CC3)cc2Cl)CC1, the XC50 is reported as 697 nM.

Compound CN1CCCC(CN2CCN(Cc3cccc(-c4ccc(-c5nc6cc(C(F)(F)F)ccc6[nH]5)cc4)c3)CC2)C1 (configuration not stated) has an XC50 of 145 nM.

In the case of O=C(Cc1c[nH]cn1)Nc1cccc(-c2ccc(-c3nc4cc(C(F)(F)F)ccc4[nH]3)s2)c1, the XC50 is reported as 773 nM.

For COc1ccccc1C(=O)Nc1cccc(N2CCC(NCc3ccc(-n4cccn4)cc3)CC2)c1, the XC50 was 1190 nM.

With CC[C@H]1CN2CC[C@H]1C[C@H]2[C@H](O)c1cc(/C=C/c2ccc(F)cc2)nc2ccc(OC)cc12 the XC50 was 28.1 nM.

Work on CC(C)CNCc1ccc(-c2cccc(-c3nc4ccccc4[nH]3)c2)cc1 yielded an XC50 of 626 nM.

For Cc1cc(NC(=O)NCCN2CCC(NS(=O)(=O)c3ccc(C(F)(F)F)cc3)C2)c2ccccc2n1 (configuration not stated), the XC50 was 645 nM.

With CCCCNCc1ccc(-c2nc(CN(Cc3ccc(Cl)c(Cl)c3)C(=O)CN(C)C)cs2)cc1 the XC50 was 805 nM.

For O=C(Nc1cccc(-c2nn3ncccc3c2-c2ccnc(Nc3ccccc3)n2)c1)c1c(F)cccc1F, the XC50 was 726 nM.

Work on COc1ccc(O)c(C(=O)c2cc(C(=O)NC3CCCCC3)c(=O)n(C3CCCCC3)c2)c1 yielded an XC50 of 664 nM.

Work on CCc1ccc(NC(=O)N(CCCN2CCN(C)CC2)Cc2csc(-c3ccc(CNCc4ccccc4)cc3)n2)cc1 yielded an XC50 of 1010 nM.

Compound CC(C)(C)c1ccc(NC(=O)c2ccc(CN3CCCN(Cc4cccc(Cl)c4)CC3)cc2)cc1 has an XC50 of 972 nM.

N=C1SC(=Cc2cn[nH]c2-c2ccc(F)cc2)C(=O)N1c1nccs1 gave an XC50 of 225 nM.

COc1cc(F)c2ncc(Cl)c(CCN3CCC(NCc4ccc5c(n4)NC(=O)CS5)CC3)c2c1 was tested, and the XC50 was 482 nM.

O=C(C=Cc1ccc(Cl)c(Cl)c1)NCCCCCN1CCC(CCCNS(=O)(=O)c2cccc(C(F)(F)F)c2)CC1 showed an XC50 of 477 nM.

Work on O=C(Nc1cc(C(F)(F)F)cc(C(F)(F)F)c1)c1cccc([N+](=O)[O-])c1 yielded an XC50 of 895 nM.

Compound COc1ccc(-c2cccc(NC(=O)c3ccc(Cl)cc3)c2)cc1CN1CCC(O)CC1 has an XC50 of 791 nM.

Compound Cc1cc(NC(=O)c2cc(S(=O)(=O)N3CCCCC3)ccc2C)no1 has an XC50 of 725 nM.

In the case of CCNc1cc(C(=O)N[C@@H](Cc2ccccc2)[C@H](O)CNC2(C)CCCCC2)cc(N2CCCCS2(=O)=O)c1, the XC50 is reported as 156 nM.

Compound Cn1cnc(CCNC(=O)c2cccc(-c3csc(-c4nc5ccccc5[nH]4)c3)c2)c1 has an XC50 of 599 nM.

Oc1ccc(CCCNc2nc(NCc3cccc4ccccc34)nc(N3CCCNCC3)n2)cc1 showed an XC50 of 987 nM.

Work on Cc1ccc(-c2noc(COc3ccccc3C(=O)NC3CCCC3)n2)cc1 yielded an XC50 of 882 nM.

With O=C(Nc1cccc(-c2ccc(-c3nc4ccccc4[nH]3)cc2)c1)c1cccnc1 the XC50 was 1040 nM.

Work on CCN(CCCNc1nc(=S)[nH]c2cc(OC)c(OC)cc12)c1ccccc1 yielded an XC50 of 721 nM.

For CN1CCN(CCc2ccc(N/C=C3\C(=O)Nc4ccc5ncccc5c43)cc2)CC1, the XC50 was 325 nM.

Nc1c(C(=O)NCCCCN2CCN(c3nsc4ccccc34)CC2)sc2ccccc12 gave an XC50 of 1320 nM.

With CN(C)CCNC(=O)c1ccc(-c2cnc3ccc(NCc4ccc(Cl)c(Cl)c4)nn23)cc1 the XC50 was 913 nM.

CCCNC(=O)Nc1cc2cc(-c3cccc(CN4CCCCC4)c3)ccc2n2c(C)nnc12 gave an XC50 of 1110 nM.

In the case of O=C(NCCCCN1CCC2c3cccc(O)c3CCC21)c1ccc(-c2ccccc2)cc1 (configuration not stated), the XC50 is reported as 1380 nM.

Compound CCOC(=O)N1CCN(CCCNc2c3ccc(Cl)cc3nc3ccc(OC)cc23)CC1 has an XC50 of 104 nM.
